In patent publication US8044022B2, “Hyaluronic acid binding peptides enhance host defense against pathogenic bacteria” (priority 2005, dated 2011):

Key:
Acapsular GAS = assay: Fluorometry binding of FITC-conjugated peptide to capsule-deficient GAS; set-up: species or system Group A Streptococcus
Procedure: Bacterial strains: GAS strain 950771 is a moderately encapsulated M3 clinical isolate from a child with post-varicella necrotizing fasciitis and sepsis, and an isogenic capsule deficient mutant, 188, derived from 950771. GAS were grown in Todd-Hewitt broth (Difco) to mid-exponential phase OD650 of 0.15 at 37° C. for all experiments. Commercially available trypticase-soy agar medium supplemented with 5% vol/vol sheep blood (BAP)(PML Microbiologicals, British Columbia, Canada) were used for all plate cultures. S. equi s(ATCC 53185) and P. multocida (ATCC 11039) were purchased from ATCC and cultured as recommended. Briefly, S. equi was cultured in Todd-Hewitt broth and S. uberis and P. multocida were cultured in Brain heart infusion (Difco) to OD 650 of 0.15 at 37° C. Quantitative cultures were performed in parallel with each experiment to verify the multiplicity of infection (MOI) of the inoculum.
Binding of HABP to HA and HA-encapsulated bacteria: To assess whether HABP are able to associate specifically with the GAS capsule, bacteria were cultured to mid-log phase, for maximal HA capsule expression, and incubated with either 10 μg/ml of FITC-conjugated HABP01 or SCRM, with purified HA at 1 mg/ml, as a positive control, or an isogenic mutant strain of GAS deficient in HA capsule, as a negative control. A GAS-specific antibody was used to control for the number of bacteria per well.

GAS = assay: Bacterial translocation through polarized keratinocyte cultures (Transwell); assay type: cell-based, Group A Streptococcus; conditions: two hours after addition of GAS
Procedure: Cell cultures: For the preparation of in vitro keratinocyte cultures, human primary OKP7 cells were derived from the oropharynx. Keratinocytes were seeded at 5×10^5 cells per well onto polycarbonate Transwell membrane supports (12 well plates, 3.0 μm pore size; Costar) or tissue culture treated plastic ware and cultured for 5-10 days at 37° C. with 5% humidified CO2 in cSFM medium with daily medium changes. Once confluent, the calcium concentration of the cSFM was increased to 1.2 mM and cells were cultured for 2 more days, before the integrity of the monolayer was assessed by measuring permeability to sodium fluorescein, and in some experiments, by measuring transepithelial electrical resistance.
Infection procedures: Keratinocyte layer cultures in Transwell inserts were inoculated in the upper chamber with GAS, S. equi, S. uberis, and P. multocida at a multiplicity of infection (MOI) of 1 bacterium per keratinocyte in the presence or absence of HABP01 or SCRM. Infected cultures were incubated at 37° C. with 5% CO2 for the desired time. In translocation experiments, Transwell inserts containing the keratinocytes were moved to new wells containing fresh medium every 2 hours to prevent overgrowth of bacteria that had translocated through the keratinocytes layer to the lower chamber. Bacterial translocation was quantified by culturing medium from the lower chamber at 2-hour intervals.
Bacterial translocation studies were performed to assess the impact of HABP01 on bacterial paracellular translocation through polarized keratinocyte cultures.
Incubation of GAS in the presence of HABP33, HABP35 and HABP42, also delayed GAS translocation. At two hours after the addition of GAS to the keratinocytes, approximately 530 CFU of GAS were detected in the lower level in cultures treated with PBS or SCRM peptide.

Which “binding to unencapsulated GAS (in words)” value (Acapsular GAS; fluorometry, HABP35 also confocal microscopy, data not shown) does the source give for “HKSVSRHTSMRHSTM [SCRM, reference compound]” here?
The value was “did not bind”.

What about the Relative binding (Acapsular GAS; substrate in well: Acapsular GAS, 10 μg/ml FITC-conjugated peptide) of the same sequence?
The Relative binding was 1490 ± 40 relative fluorescent units.

What about the “GAS detected in the lower level” value (GAS) of the same sequence?
The value was “approximately 530 CFU”.
